Several values for one entry are separate records, joined by “and”; a condition that tells them apart may be missing. Equal values may be shown once. Read-outs that look alike come from different tables or passages of the source. Values belong to the molecule of their own block, whether it stands above or below them.
Key:
[1] = molecular target: RfLacA (Reticulitermes flavipes, UniProt D0E8H0); assay: RfLacA substrate specificity and kinetic parameters
[2] = molecular target: T1, recombinant RfBGluc-1 β-glucosidase (Reticulitermes flavipes, UniProt D9ILU1); assay: Activity of recombinant RfBGluc-1 towards synthetic nitrophenol substrates, kinetic microplate assay; format: biochemical; details: percent activity rankings based on Vmax; pNP-βD-Glucopyranoside = 100
T1 sequence (D9ILU1 18-495): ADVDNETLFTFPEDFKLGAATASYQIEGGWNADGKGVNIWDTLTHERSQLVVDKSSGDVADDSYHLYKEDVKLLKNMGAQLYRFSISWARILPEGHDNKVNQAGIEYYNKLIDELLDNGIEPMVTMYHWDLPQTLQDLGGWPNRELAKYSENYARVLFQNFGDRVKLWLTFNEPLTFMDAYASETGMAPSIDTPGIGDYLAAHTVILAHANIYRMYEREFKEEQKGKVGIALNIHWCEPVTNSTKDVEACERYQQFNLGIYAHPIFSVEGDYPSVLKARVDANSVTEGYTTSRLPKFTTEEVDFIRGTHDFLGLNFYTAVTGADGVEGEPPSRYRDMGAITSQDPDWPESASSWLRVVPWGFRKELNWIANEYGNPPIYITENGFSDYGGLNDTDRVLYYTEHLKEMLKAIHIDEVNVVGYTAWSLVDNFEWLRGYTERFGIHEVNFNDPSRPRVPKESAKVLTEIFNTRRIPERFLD
Procedure: All initial characterization assays took place in 0.1 M sodium acetate buffer (pH 6) using 2 μL of recombinant enzyme preparation (=1.58 μg protein per assay) in a total reaction volume of 250 μL. Synthetic p-nitrophenol substrates (Table 1) were tested in direct kinetic assays using a microplate reader. Reactions were initiated by adding 248 μL assay buffer to 2 μL protein. Assays were read at 420 nm every 20 sec for 5 min to yield mean velocity data in mOD/min. Specific activity was determined with the p-nitrophenol extinction coefficient of 0.6605 mM^−1 cm^−1. All results were averaged from three independent replicates, each conducted in triplicate.

[3] = molecular target: T1, recombinant RfBGluc-1 β-glucosidase; assay: Activity of recombinant RfBGluc-1 towards natural substrates, endpoint glucose detection assay; format: biochemical
Procedure: Natural carbohydrate substrates (Table 2) were tested in endpoint assays in which color development was enabled using 439-90901 glucose-mutarose detection reagent (Wako Chemical; Richmond, Va.). Assays were conducted in 125 μL for 5 min at room temperature as described above and stopped with the addition of 125 μL glucose detection reagent. After 1 min, the absorbance was read at 505 nm.

[4] = tested on: Cell-1; details: for effect on Cell-1 temperature stability: pre-incubation at 60° C. and 70° C., 0-60 min
Procedure: Thermal stability tests were conducted using 1.5% CMC in 100 mM sodium phosphate at the optimal pH of 7. Temperature-cofactor studies were performed using 1.5% CMC dissolved in 100 mM sodium phosphate (pH 7) alone, plus 4 mM EDTA (final concentration), or plus 10 mM calcium chloride (final concentration). Pre-incubations took place for 0-5 days at 25° C. or 0-60 min at 60° C. or 70° C.; reactions were terminated by the combination of adding stop solution and boiling for 10 min, and then assays were read at 25° C.
Calcium as a cofactor in β-1,4-endoglucanase Cell-1 hydrolytic activity and temperature stability: The effects of calcium on recombinant Cell-1 activity were investigated using calcium chloride as a calcium source and EDTA as a potential calcium chelator.

[5] = Recombinant Cell-3 exoglucanase activity in unpurified form; format: biochemical; details: for activity toward pNPC relative to uninfected control larvae: homogenates of infected larvae
Source text: Recombinant Cell-3 characterization: The recombinant Cell-3 protein (nucleotide sequence SEQ ID NO.: 3; amino acid sequence SEQ ID NO.: 4) was investigated in unpurified form. […] Other experiments investigating activity in crude homogenates over time and after repeated freeze-thaw cycles further verified reduced Cell-3 stability.

[6] = Characterisation of recombinant RfLacA and RfLacB isoforms; format: biochemical
[7] = RfLacA, 1 mM substrate, hydroquinone = 100

Sequence of RfLacA (D0E8H0 entry or part of it): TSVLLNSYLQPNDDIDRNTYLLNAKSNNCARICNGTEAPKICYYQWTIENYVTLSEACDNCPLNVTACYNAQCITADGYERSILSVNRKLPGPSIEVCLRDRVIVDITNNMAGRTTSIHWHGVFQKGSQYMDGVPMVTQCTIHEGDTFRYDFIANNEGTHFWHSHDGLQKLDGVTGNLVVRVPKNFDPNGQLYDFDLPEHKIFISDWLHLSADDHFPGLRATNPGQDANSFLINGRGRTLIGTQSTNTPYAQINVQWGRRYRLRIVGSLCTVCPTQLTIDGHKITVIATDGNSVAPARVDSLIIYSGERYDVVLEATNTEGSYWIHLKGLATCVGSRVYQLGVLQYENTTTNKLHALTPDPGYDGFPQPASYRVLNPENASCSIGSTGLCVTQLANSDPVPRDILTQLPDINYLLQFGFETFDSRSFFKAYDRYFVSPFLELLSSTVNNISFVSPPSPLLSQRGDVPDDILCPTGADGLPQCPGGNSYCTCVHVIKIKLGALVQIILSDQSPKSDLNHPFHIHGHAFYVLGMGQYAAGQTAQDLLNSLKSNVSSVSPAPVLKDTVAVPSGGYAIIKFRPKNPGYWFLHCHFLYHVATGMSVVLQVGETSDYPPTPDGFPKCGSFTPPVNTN

- Optimal pH ([1]; RfLacA, per substrate): 7
- Specific Activity at 1 mM [S] ([1]; RfLacA, 1 mM substrate): 1.482 nmol·min/mg
- Relative Activity (%) [1, 7]: 17.70%
Molecule: Oc1cccc(O)c1O [Pyrogallol]

Molecule: O=[N+]([O-])c1ccc(O[C@@H]2OC[C@@H](O)[C@H](O)[C@H]2O)cc1 [pNP-βD-Xylopyranoside]
- Activity (%) [2]: 0%

Molecule: O=[N+]([O-])c1ccccc1O[C@@H]1O[C@H](CO)[C@@H](O)[C@H](O)[C@@H]1O [oNP-βD-Mannopyranoside]
- Activity (%) [2]: 0%

Molecule: O=[N+]([O-])c1ccc(O[C@@H]2O[C@H](CO)[C@@H](O[C@@H]3O[C@H](CO)[C@@H](O[C@@H]4O[C@H](CO)[C@@H](O[C@@H]5O[C@H](CO)[C@@H](O)[C@H](O)[C@H]5O)[C@H](O)[C@H]4O)[C@H](O)[C@H]3O)[C@H](O)[C@H]2O)cc1 [pNP-βD-Cellotetraoside, p-nitrophenyl-beta-D-cellotetraoside]
- Activity (%) [2]: 73%

- Optimal pH ([1]; RfLacA, per substrate): 7.5
- Specific Activity at 1 mM [S] ([1]; RfLacA, 1 mM substrate): 2.146 nmol·min/mg
- Relative Activity (%) [1, 7]: 25.63%
Molecule: COc1cccc(OC)c1O [2,6-DMP, 2,6-dimethoxyphenol]

Molecule: O=[N+]([O-])c1ccc(O[C@@H]2O[C@H](CO)[C@H](O)[C@H](O)[C@H]2O)cc1 [pNP-βD-Galactopyranoside]
- Activity (%) [2]: 0%

Molecule: OC[C@H]1O[C@@](CO)(O[C@H]2O[C@H](CO)[C@@H](O)[C@H](O)[C@H]2O)[C@@H](O)[C@@H]1O [Sucrose]
- Activity (%) [3]: 0%

Molecule: O=[N+]([O-])c1ccc(O[C@H]2OC[C@H](O)[C@H](O)[C@H]2O)cc1 [pNP-βL-Arabinopyranoside]
- Activity (%) [2]: 0%

Molecule: COc1cc(/C=C/C(=O)O)cc(OC)c1O [Sinapinic Acid]
- Relative Activity (%) [1]: 40.40%
- Optimal pH ([1]; RfLacA, per substrate): 7.5
- Specific Activity at 1 mM [S] ([1]; RfLacA, 1 mM substrate): 3.383 nmol·min/mg

Molecule: O=[N+]([O-])c1ccc(O[C@H]2O[C@H](CO)[C@H](O)[C@H](O)[C@H]2O)cc1 [pNP-αD-Galactopyranoside]
- Activity (%) [2]: 0%

Molecule: OCc1ccccc1O[C@@H]1O[C@H](CO)[C@@H](O)[C@H](O)[C@H]1O [Salicin]
- Activity (%) [3]: 44%

Molecule: O=[N+]([O-])c1ccc(O[C@@H]2O[C@H](CO)[C@@H](O[C@@H]3O[C@H](CO)[C@@H](O)[C@H](O)[C@H]3O)[C@H](O)[C@H]2O)cc1 [pNP-βD-Cellobioside, p-nitrophenyl-beta-D-cellobioside]
- Activity (%) [2]: 60%

Molecule: O=C(O)[C@H]1O[C@@H](Oc2ccc([N+](=O)[O-])cc2)[C@H](O)[C@@H](O)[C@@H]1O [pNP-βD-Glucuronide]
- Activity (%) [2]: 0%

- Specific Activity at 1 mM [S] ([1]; RfLacA, 1 mM substrate): 0.190 nmol·min/mg
- Relative Activity (%) [1, 7]: 2.27%
Molecule: NCCC(=O)NCCc1ccc(O)c(O)c1 [NBAD]

Molecule: O=[N+]([O-])c1ccccc1O[C@@H]1O[C@H](CO)[C@@H](O)[C@H](O)[C@H]1O [oNP-βD-Glucopyranoside]
- Activity (%) [2]: 18%

Molecule: Oc1ccccc1O [Pyrocatechol]
- Relative Activity (%) [1]: 27.65%
- Optimal pH ([1]; RfLacA, per substrate): 7.5
- Specific Activity at 1 mM [S] ([1]; RfLacA, 1 mM substrate): 2.315 nmol·min/mg

Molecule: O=[N+]([O-])c1cccc(O[C@H]2O[C@H](CO)[C@H](O)[C@H](O)[C@H]2O)c1 [mNP-αD-Galactopyranoside]
- Activity (%) [2]: 0%

Molecule: CC(=O)NCCc1ccc(O)c(O)c1 [NADA]
- Relative Activity (%) [1]: 9.08%
- Specific Activity at 1 mM [S] ([1]; RfLacA, 1 mM substrate): 0.760 nmol·min/mg

Molecule: O=[N+]([O-])c1ccc(O[C@@H]2O[C@H](CO)[C@@H](O[C@@H]3O[C@H](CO)[C@@H](O[C@@H]4O[C@H](CO)[C@@H](O)[C@H](O)[C@H]4O)[C@H](O)[C@H]3O)[C@H](O)[C@H]2O)cc1 [pNP-βD-Cellotrioside, p-nitrophenyl-beta-D-cellotrioside]
- Activity (%) [2]: 98%

Molecule: O=[N+]([O-])c1ccccc1O[C@@H]1OC[C@@H](O)[C@H](O)[C@H]1O [oNP-βD-Xylopyranoside]
- Activity (%) [2]: 38%

Molecule: Oc1ccc(O)cc1 [Hydroquinone]
- Optimal pH [1]: 7
- Relative Activity (%) [1]: 100.00%
- Specific Activity at 1 mM [S] [1]: 8.373 nmol·min/mg
- Apparent Vmax ([1]; RfLacA, footnote: maximal specific activities in nmol/min/mg): 0.824 μm min^−1

Molecule: OC[C@H]1O[C@@H](O[C@H]2[C@H](O)[C@@H](CO)OC(O)[C@@H]2O)[C@H](O)[C@@H](O)[C@@H]1O (stereo partly shown) [Laminaribose]
- Activity (%) [3]: 34%

- Optimal pH ([1]; RfLacA, per substrate): 6.0 and 7.5
- Specific Activity at 1 mM [S] ([1]; RfLacA, 1 mM substrate): 0.676 nmol·min/mg
- Relative Activity (%) [1, 7]: 8.07%
Molecule: N[C@@H](Cc1ccc(O)c(O)c1)C(=O)O [L-DOPA]

- Activity (%) ([3]; percent activity rankings based on Vmax, cellobiose = 100): 100%
Molecule: Cellobiose

Molecule: O=[N+]([O-])c1ccc(O[C@@H]2O[C@H](CO)[C@@H](O)[C@H](O)[C@H]2O)cc1 [pNP-βD-Glucopyranoside, p-nitrophenyl-beta-D-glucopyranoside]
- Activity (%) [2]: 100%

Molecule: [Ca+2].[Cl-].[Cl-] [calcium chloride]
- effect on Cell-1 CMC endoglucanase activity ([4]; incubations over a 5-day period at about 25° C.): slightly enhanced
- effect on Cell-1 temperature stability [4]: stabilized/extended CMC hydrolysis activity over time
- effect on Cell-1 temperature stability ([4]; listed as calcium): improves Cell-1 temperature stability

Molecule: C[C@H]1O[C@@H](Oc2ccc([N+](=O)[O-])cc2)[C@H](O)[C@@H](O)[C@H]1O [pNP-βD-Fucopyranoside]
- Activity (%) [2]: 55%

B1: Cell-3: recombinant exoglucanase, amino acid sequence SEQ ID NO.: 4, investigated in unpurified form (protein)
chain: MVLCILLQWMQIGGKQKYPAFKPGAKYGRGYCDGQCPHDMKVSSGRANVDGWKPQDNDENSGNGKLGTCCWEMDIWEGNLVSQAYTVHAGSKSGQYECTGTQCGDTDSGERFKGTCDKDGCDFASYRWGATDYYGPGKTVDTKQPMTVVTQFIGDPLTEIKRVYVQGGKVINNSKTSNLGSVYDSLTEAFCDDTKQVTGDTNDFKAKGGMSGFSKNLDTPQVLVMSLWDDHTANMLWLDSTYPTDSTKPGAARGTCAVTSGDPKDVESKQANSQVVYSDIKFGPINSTYKAN
modifications: Reticulitermes flavipes; amino acid sequence exoglucanase (Cell-3)
- activity toward pNPC relative to uninfected control larvae [5]: significantly higher activity
- activity toward pNPC relative to uninfected control larvae ([5]; listed as recombinant Cell-3): higher exoglucanase (cellulase) activity than do uninfected homogenates
- stability of recombinant protein ([5]; pNPC activity in filtrates, over time and after freeze-thaw cycles): reduced stability

B2: RfLacB: recombinant R. flavipes gut laccase isoform 2, clone Lac12, SEQ ID NO.: 12 (protein)
chain: VYRSDAYIMLPCVLLACAIGVASATSVLLNSYLQPNDDIDRNTYLLNAKSNNCARICNGTEAPKICYYQWTIENYVTLSEACDNCPLNVTACYNAQCITADGYERSILSVNRKLPGPSIEVCLRDRVIVDITNNMAGRTTSIHWHGVFQKGSQYMDGVPMVTQCTIHEGDTLRYDFIANNEGTHFWHSHDGLQKLDGVTGNLVVRVPKNFDPNGQLYDFDLPEHKIFISDWLHLSADDHFPGLRATNPGQDANSFLINGRGRTLIGTQSTNTPYAQINVQWGRRYRLRIVGSLCTVCPTQLTIDGHKITVIATDGNSVAPARVDSLIIYSGERYDVVLEATNTEGSYWIHLKGLVTCVGSRVYQLGVLQYENTTTNKLHALTPDPGYDGFPQPASYRVLNPENASCSIGSTGLCVTQLANSDPVPRDILTQLPDINYLLQFGFKIFDSRSFFKAYDRYFVSPFLDLVSSTVNNISSVSPPSPLLSQRGDVPDDVLCPTGADGLPQCPGGNSYCTCVHVIKIKLGALVQIILSDQTPKSGLNHPFHLHGHAFYVLGMGQYAAGQTAQDLLNSLKSNVSSVSPAPVLKDTIAVPSGGYAIIKFRPKNPGYWFLHCHFLYHVATGMSVVLQVGETSDYPPTPDGFPKCGSFTPPVNTN
modifications: Reticulitermes flavipes; amino acid sequence Laccase Lacc-12
- Results of RfLacB isoform compared with RfLacA against all substrates [6]: statistically indistinguishable results to RfLacA
- oxidation of ABTS and syringaldazine [6]: unable to oxidize
